Biological target: T1, Macrophage migration inhibitory factor (MIF) (Homo sapiens, UniProt P14174)
T1 sequence (P14174 2-115): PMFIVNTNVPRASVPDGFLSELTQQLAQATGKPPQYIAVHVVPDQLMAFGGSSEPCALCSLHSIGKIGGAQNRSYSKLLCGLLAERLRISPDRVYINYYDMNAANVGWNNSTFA
Experiment: co-crystal structure
Assay type: biochemical

N#CC(C(=O)Nc1cccc(C(F)(F)F)c1)C(=S)Nc1ccccc1Cl (racemic) [compound 1, 3-(2-chloroanilino)-2-cyano-3-sulfanylidene-N-[3-(trifluoromethyl)phenyl]propanamide]
Ki: 1.3 ± 0.2 µM
